# In patent US10682421B2, “Nanoparticle composition for use in targeting cancer stem cells and method for treatment of cancer” (City University of Hong Kong, priority 2015, dated 2020):
# Test system: LCSCs
# Assay: In vitro thermotherapy and chemotherapy under AMF or water bath, MTT assay
# Assay type: cell-based, human
# Conditions: 37° C. under AMF for 30 min, 100 mg/mL for 1 h
# Protocol: The AMF was generated by a 5 cm diameter 8-turn induction coil powered by a 3 kW alternating magnetic field generator. LCSCs were seeded in the 6-well plate at a density of 5×10^4 cells/mL. After 24 h incubation, cells were separately treated with 100 mg/mL CD20-Fe3O4@SiNPs, CD20-HSPI&Fe3O4@SiNPs, Fe3O4@SiNPs, HSPI&Fe3O4@SiNPs, SiNPs, and HSPI for 1 h. Cells without treatment were used as control. Following two washes with PBS, cells were placed inside the coil and heated to a defined temperature (between 37 and 50° C.) for 30 min. While frequency was kept constant at 350 kHz and temperature was monitored by using a thermometer immersed in a test tube containing 2 mL of solution. The traditional heating method (water bath heater) was used to compare with AMF heating. Cell survival was assessed by MTT assay.
smiles,measurement,value
"CO[C@H]1/C=C\C=C(/C)C(=O)NC2=CC(=O)C(NCCN(C)C)=C(C[C@@H](C)C[C@H](OC)[C@H](O)[C@@H](C)/C=C(\C)[C@@H]1OC(N)=O)C2=O [HSPI, 17-(Dimethylaminoethylamino)-17-demethoxygeldanamycin]",cell survival rate,77%
